The source made the active and inactive calls. No cut-off for these calls is given here.
Key:
[1] = test system: Mus musculus; experiment: Anticonvulsant activity in ip dosed albino mouse model of maximal electroshock-induced seizures assessed as prevention of tonic hind limb extension pretreated for 4 hrs followed by 50 mA current-induction for 0.25 secs; assay type: functional
[2] = test system: Mus musculus; experiment: Anticonvulsant activity in ip dosed albino mouse model of subcutaneous pentylenetetrazole-induced seizure assessed as failure to observe even a single episode of clonic spasms for at least 5 secs pretreated for 0.5 hrs followed by pentylenetetrazole induction; assay type: functional
[3] = test system: Mus musculus; experiment: Anticonvulsant activity in ip dosed albino mouse model of subcutaneous pentylenetetrazole-induced seizure assessed as failure to observe even a single episode of clonic spasms for at least 5 secs pretreated for 4 hrs followed by pentylenetetrazole induction; assay type: functional
[4] = test system: Mus musculus; experiment: Anticonvulsant activity in ip dosed albino mouse model of maximal electroshock-induced seizures assessed as prevention of tonic hind limb extension pretreated for 0.5 hrs followed by 50 mA current-induction for 0.25 secs; assay type: functional
[5] = Neurotoxicity in ip dosed albino mouse assessed as motor impairment measured at 4 hrs by rotarod test; assay type: toxicity, organism-based; details: in vivo
[6] = Neurotoxicity in ip dosed albino mouse assessed as motor impairment measured at 0.5 hrs by rotarod test; assay type: toxicity, organism-based; details: in vivo
[7] = Hepatotoxicity in albino mouse assessed as decrease in serum SGOT level at 30 mg/kg, po administered daily for one month measured post-last dose; assay type: toxicity, organism-based; details: in vivo
[8] = Hepatotoxicity in albino mouse assessed as increase in serum serum alkaline phosphatase level at 30 mg/kg, po administered daily for one month measured post-last dose; assay type: toxicity, organism-based; details: in vivo
[9] = molecular target: 4-aminobutyrate aminotransferase, mitochondrial (Mus musculus, UniProt P61922); experiment: Inhibition of GABA aminotransferase in mouse brain homogenates using GABA and alpha-ketoglutarate as substrates preincubated for 30 mins followed by beta-NADP addition and measured for 20 mins by spectrophotometric method; assay type: tissue-based
[10] = Hepatotoxicity in albino mouse assessed as increase in serum SGPT level at 30 mg/kg, po administered daily for one month measured post-last dose; assay type: toxicity, organism-based; details: in vivo
[11] = Hepatotoxicity in albino mouse assessed as decrease in serum alkaline phosphatase level at 30 mg/kg, po administered daily for one month measured post-last dose; assay type: toxicity, organism-based; details: in vivo
[12] = Hepatotoxicity in albino mouse assessed as appearance of normal hepatocyte with clearing of cytoplasm at 30 mg/kg, po administered daily for one month measured post-last dose by histopathological analysis; assay type: toxicity, organism-based; details: in vivo
[13] = Hepatotoxicity in albino mouse assessed as decrease in serum SGPT level at 30 mg/kg, po administered daily for one month measured post-last dose; assay type: toxicity, organism-based; details: in vivo
[14] = test system: Mus musculus; experiment: Anticonvulsant activity in po dosed albino mouse brain assessed as increase in brain GABA level administered for 7 days by TLC analysis; assay type: functional

Sequence of 4-aminobutyrate aminotransferase, mitochondrial (P61922 whole entry): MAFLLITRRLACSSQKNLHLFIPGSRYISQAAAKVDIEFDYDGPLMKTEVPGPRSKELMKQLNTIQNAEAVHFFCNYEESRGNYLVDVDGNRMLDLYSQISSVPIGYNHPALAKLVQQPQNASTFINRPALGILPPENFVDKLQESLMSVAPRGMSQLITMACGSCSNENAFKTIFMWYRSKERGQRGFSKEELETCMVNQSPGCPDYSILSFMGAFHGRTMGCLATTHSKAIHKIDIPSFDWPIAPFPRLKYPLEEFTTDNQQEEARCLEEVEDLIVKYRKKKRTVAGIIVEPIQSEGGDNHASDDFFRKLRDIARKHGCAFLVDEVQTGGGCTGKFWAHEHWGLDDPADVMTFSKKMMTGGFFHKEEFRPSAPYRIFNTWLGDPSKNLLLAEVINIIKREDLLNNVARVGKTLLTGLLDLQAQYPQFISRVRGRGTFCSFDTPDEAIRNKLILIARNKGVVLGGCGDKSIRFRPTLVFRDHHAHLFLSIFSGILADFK

## O=C(Nc1nc2ccc(Cl)cc2s1)NN1C(=O)C(Cl)C1c1ccccc1Cl (stereo not drawn)
[1]
  MED=>50: 300 mg/kg
[2]
  MED=>50: inactive
[3]
  MED=>50: inactive
[4]
  MED=>50: 300 mg/kg
[5]
  MED=>50: Non-Toxic
[6]
  MED=>50: Non-Toxic

## COc1ccc(C2C(Cl)C(=O)N2NC(=O)Nc2nc3ccc(Cl)cc3s2)cc1 (stereo not drawn)
[1]
  MED=>50: 300 mg/kg
[2]
  MED=>50: inactive
[3]
  MED=>50: inactive
[4]
  MED=>50: 300 mg/kg
[5]
  MED=>50: Non-Toxic
[6]
  MED=>50: Non-Toxic

## O=C(Nc1nc2ccc(Cl)cc2s1)NN1C(=O)C(Cl)C1c1ccc(Cl)cc1Cl (stereo not drawn)
[7]
  Activity: Toxic
[8]
  Activity: Toxic
[1]
  MED=>50: 100 mg/kg
[2]
  MED=>50: 100 mg/kg
[3]
  MED=>50: 100 mg/kg
[4]
  MED=>50: 30 mg/kg
[5]
  MED=>50: Non-Toxic
[9]
  IC50: 51.4 µM
[6]
  MED=>50: Non-Toxic
[10]
  Activity: Toxic

## O=C(Nc1nc2ccc(Cl)cc2s1)NN1C(=O)CSC1c1ccccc1Cl (stereo not drawn)
[1]
  MED=>50: 100 mg/kg
[2]
  MED=>50: 300 mg/kg
[3]
  MED=>50: 300 mg/kg
[4]
  MED=>50: 100 mg/kg
[5]
  MED=>50: Non-Toxic
[6]
  MED=>50: Non-Toxic

## O=C1NC(=O)C(c2ccccc2)(c2ccccc2)N1 [PHENYTOIN]
[1]
  MED=>50: 30 mg/kg
[2]
  MED=>50: inactive
[3]
  MED=>50: inactive
[4]
  MED=>50: 30 mg/kg
[5]
  MED=>50: 100 mg/kg
[6]
  MED=>50: 100 mg/kg

## CCCC(CCC)C(=O)O [VALPROIC ACID]
[1]
  MED=>50: inactive
[2]
  MED=>50: 300 mg/kg
[3]
  MED=>50: inactive
[4]
  MED=>50: inactive
[5]
  MED=>50: Non-Toxic
[6]
  MED=>50: Non-Toxic

## O=C(Nc1nc2ccc(Cl)cc2s1)NN1C(=O)C(Cl)C1c1ccc([N+](=O)[O-])cc1 (stereo not drawn)
[1]
  MED=>50: 100 mg/kg
[2]
  MED=>50: 300 mg/kg
[3]
  MED=>50: 300 mg/kg
[4]
  MED=>50: 100 mg/kg
[5]
  MED=>50: Non-Toxic
[6]
  MED=>50: Non-Toxic

## O=C(Nc1nc2ccc(Cl)cc2s1)NN1C(=O)CSC1c1ccc(Cl)cc1Cl (stereo not drawn)
[7]
  Activity: Toxic
[1]
  MED=>50: 100 mg/kg
[2]
  MED=>50: 100 mg/kg
[11]
  Activity: Toxic
[3]
  MED=>50: 100 mg/kg
[4]
  MED=>50: 30 mg/kg
[5]
  MED=>50: Non-Toxic
[12]
  Activity: Non-Toxic
[13]
  Activity: Toxic
[9]
  IC50: 15.3 µM
[6]
  MED=>50: Non-Toxic
[14]
  fold change (FC): 1.5

## O=C(Nc1nc2ccc(Cl)cc2s1)NN1C(=O)CSC1c1ccc([N+](=O)[O-])cc1 (stereo not drawn)
[7]
  Activity: Toxic
[8]
  Activity: Toxic
[1]
  MED=>50: 100 mg/kg
[2]
  MED=>50: 100 mg/kg
[3]
  MED=>50: 100 mg/kg
[4]
  MED=>50: 30 mg/kg
[5]
  MED=>50: Non-Toxic
[9]
  IC50: 58.1 µM
[6]
  MED=>50: Non-Toxic
[10]
  Activity: Toxic

## O=C(Nc1nc2ccc(Cl)cc2s1)NN1C(=O)CSC1c1ccccc1 (stereo not drawn)
[1]
  MED=>50: 300 mg/kg
[2]
  MED=>50: 300 mg/kg
[3]
  MED=>50: 300 mg/kg
[4]
  MED=>50: 300 mg/kg
[5]
  MED=>50: Non-Toxic
[6]
  MED=>50: Non-Toxic

## COc1ccc(C2SCC(=O)N2NC(=O)Nc2nc3ccc(Cl)cc3s2)cc1 (stereo not drawn)
[1]
  MED=>50: inactive
[2]
  MED=>50: inactive
[3]
  MED=>50: inactive
[4]
  MED=>50: 300 mg/kg
[5]
  MED=>50: Non-Toxic
[6]
  MED=>50: Non-Toxic

## Cc1ccccc1C1C(Cl)C(=O)N1NC(=O)Nc1nc2ccc(Cl)cc2s1 (stereo not drawn)
[1]
  MED=>50: 300 mg/kg
[2]
  MED=>50: inactive
[3]
  MED=>50: inactive
[4]
  MED=>50: 300 mg/kg
[5]
  MED=>50: 300 mg/kg
[6]
  MED=>50: 300 mg/kg

## CC(=O)Oc1ccccc1C1SCC(=O)N1NC(=O)Nc1nc2ccc(Cl)cc2s1 (stereo not drawn)
[1]
  MED=>50: 300 mg/kg
[2]
  MED=>50: inactive
[3]
  MED=>50: inactive
[4]
  MED=>50: 300 mg/kg
[5]
  MED=>50: Non-Toxic
[6]
  MED=>50: Non-Toxic

## O=C(Nc1nc2ccc(Cl)cc2s1)NN1C(=O)C(Cl)C1c1ccccc1 (stereo not drawn)
[1]
  MED=>50: 300 mg/kg
[2]
  MED=>50: inactive
[3]
  MED=>50: inactive
[4]
  MED=>50: 300 mg/kg
[5]
  MED=>50: Non-Toxic
[6]
  MED=>50: Non-Toxic

## CCC1(C)CC(=O)NC1=O (stereo not drawn) [ETHOSUXIMIDE]
[1]
  MED=>50: inactive
[2]
  MED=>50: 300 mg/kg
[3]
  MED=>50: inactive
[4]
  MED=>50: inactive
[5]
  MED=>50: Non-Toxic
[6]
  MED=>50: Non-Toxic

## Cc1ccccc1C1SCC(=O)N1NC(=O)Nc1nc2ccc(Cl)cc2s1 (stereo not drawn)
[1]
  MED=>50: 300 mg/kg
[2]
  MED=>50: inactive
[3]
  MED=>50: inactive
[4]
  MED=>50: 300 mg/kg
[5]
  MED=>50: 300 mg/kg
[6]
  MED=>50: 300 mg/kg

## C=CC(N)CCC(=O)O (stereo not drawn) [VIGABATRIN]
[9]
  IC50: 39.7 µM

## CC(=O)Oc1ccccc1C1C(Cl)C(=O)N1NC(=O)Nc1nc2ccc(Cl)cc2s1 (stereo not drawn)
[1]
  MED=>50: 300 mg/kg
[2]
  MED=>50: inactive
[3]
  MED=>50: inactive
[4]
  MED=>50: 300 mg/kg
[5]
  MED=>50: Non-Toxic
[6]
  MED=>50: Non-Toxic

## NC(=O)N1c2ccccc2C=Cc2ccccc21 [CARBAMAZEPINE]
[1]
  MED=>50: 100 mg/kg
[2]
  MED=>50: 100 mg/kg
[3]
  MED=>50: 100 mg/kg
[4]
  MED=>50: 30 mg/kg
[5]
  MED=>50: 300 mg/kg
[6]
  MED=>50: 100 mg/kg
